Experimental data from publication PMC10999543, “Identification of kinase modulators as host-directed therapeutics against intracellular methicillin-resistant Staphylococcus aureus” (Frontiers in Cellular and Infection Microbiology, 2024).
Where two headings read alike, the source gives them in different places.

Key:
intracellular MRSA = format: cell-based, Staphylococcus aureus; conditions: for %GFP+ rep 1 / z-scoreMRSA+ rep 1: replicate 1; for %GFP+ rep 2 / z-scoreMRSA+ rep 2: replicate 2; for %GFP+ rep 3 / z-scoreMRSA+ rep 3: replicate 3; for z-scoreMRSA+ mean: mean of 3 replicates
Procedure, shortened: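 HeLa, MRSA-GFP at MOI ~6.8, 1 h infection; gentamicin 30 µg/ml for 15 min; inhibitor plus gentamicin 5 µg/ml overnight, 37°C/5% CO2; triplicate plates; FACS %GFP+ and cell count; hit = z ≤ -2 MRSA+, z ≥ -3 count.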

HeLa cells = assay: Compound screen by flow cytometry: HeLa cell count as surrogate readout of cell viability (z-scoreHeLa); format: cell-based, human; conditions: for cell count rep 1 / z-scoreHeLa rep 1: replicate 1; for cell count rep 2 / z-scoreHeLa rep 2: replicate 2; for cell count rep 3 / z-scoreHeLa rep 3: replicate 3; for z-scoreHeLa mean: mean of 3 replicates
Procedure, shortened: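 HeLa cells were infected with GFP-MRSA (mean MOI 6.8 ± 4.6) for 1 h, and extracellular bacteria were killed with 30 µg/ml gentamicin. Cells were then incubated overnight with kinase inhibitors in 5 µg/ml gentamicin, in triplicate against DMSO controls. Flow-cytometric cell count served as a viability surrogate, expressed as a plate z-score.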

[1] = PKIS compound screen raw data, MRSA-infected HeLa cells
[2] = Yes/No: effect without cell death
[3] = compound screen, MRSA-infected HeLa cells
[4] = PKIS compound screen raw data, HeLa cell count
[5] = compound screen, HeLa cell count
[6] = PKIS compound screen, MRSA-infected HeLa cells
[7] = PKIS compound screen, Yes/No call (effect without cell death)
[8] = PKIS compound screen, Yes/No call on z-scoreMRSA+
[9] = PKIS compound screen, HeLa cell count
[10] = PKIS compound screen, Yes/No call on z-scoreHeLa
[11] = PKIS compound screen, Yes/No call
[12] = PKIS compounds raw data, MRSA-infected HeLa cells
[13] = PKIS compounds raw data, HeLa cell count

Cc1cc(N2CCC(NS(=O)(=O)c3ccc(F)cc3)CC2)nc(Nc2cccc(C#N)c2)n1 [GSK1653537A]
%GFP+ rep 1 (intracellular MRSA; [1]): 23.5%
%GFP+ rep 2 (intracellular MRSA; [1]): 20.6%
%GFP+ rep 3 (intracellular MRSA; [1]): 22.3%
effect (intracellular MRSA; Yes/No call from z-scoreMRSA+): No
hit (intracellular MRSA; [2]): No
z-scoreMRSA+ mean (intracellular MRSA; [3]): -0.29
z-scoreMRSA+ rep 1 (intracellular MRSA; [3]): -0.41
z-scoreMRSA+ rep 2 (intracellular MRSA; [3]): -0.49
z-scoreMRSA+ rep 3 (intracellular MRSA; [3]): 0.03
cell count rep 1 (HeLa cells; [4]): 5368
cell count rep 2 (HeLa cells; [4]): 4678
cell count rep 3 (HeLa cells; [4]): 5821
cell death (HeLa cells; Yes/No call from z-scoreHeLa): No
z-scoreHeLa mean (HeLa cells; [5]): 0.46
z-scoreHeLa rep 1 (HeLa cells; [5]): 0.73
z-scoreHeLa rep 2 (HeLa cells; [5]): 0.29
z-scoreHeLa rep 3 (HeLa cells; [5]): 0.37

O=C(O[C@H]1CN[C@H](C#Cc2cc3ncnc(Nc4ccc5c(cnn5Cc5ccccc5)c4)c3s2)C1)N1CCOCC1 [GSK200398A]
%GFP+ rep 1 (intracellular MRSA; [1]): 12.7%
%GFP+ rep 2 (intracellular MRSA; [1]): 13.5%
%GFP+ rep 3 (intracellular MRSA; [1]): 14.0%
z-scoreMRSA+ mean (intracellular MRSA; [6]): -1.64
z-scoreMRSA+ rep 1 (intracellular MRSA; [6]): -1.64
z-scoreMRSA+ rep 2 (intracellular MRSA; [6]): -1.51
z-scoreMRSA+ rep 3 (intracellular MRSA; [6]): -1.76
hit (intracellular MRSA; [7]): No
effect (intracellular MRSA; [8]): No
cell count rep 1 (HeLa cells; [4]): 22424
cell count rep 2 (HeLa cells; [4]): 29797
cell count rep 3 (HeLa cells; [4]): 30147
z-scoreHeLa mean (HeLa cells; [9]): -0.74
z-scoreHeLa rep 1 (HeLa cells; [9]): 0.35
z-scoreHeLa rep 2 (HeLa cells; [9]): -0.93
z-scoreHeLa rep 3 (HeLa cells; [9]): -1.65
cell death (HeLa cells; [10]): No

CS(=O)(=O)CCNCc1nc(-c2ccc3ncnc(Nc4ccc(F)c(Cl)c4)c3c2)cs1 [GW461104A]
%GFP+ rep 1 (intracellular MRSA; [1]): 24.3%
%GFP+ rep 2 (intracellular MRSA; [1]): 20.7%
%GFP+ rep 3 (intracellular MRSA; [1]): 21.4%
effect (intracellular MRSA; Yes/No call from z-scoreMRSA+): No
hit (intracellular MRSA; [2]): No
z-scoreMRSA+ mean (intracellular MRSA; [3]): -0.31
z-scoreMRSA+ rep 1 (intracellular MRSA; [3]): -0.23
z-scoreMRSA+ rep 2 (intracellular MRSA; [3]): -0.46
z-scoreMRSA+ rep 3 (intracellular MRSA; [3]): -0.24
cell count rep 1 (HeLa cells; [4]): 1413
cell count rep 2 (HeLa cells; [4]): 957
cell count rep 3 (HeLa cells; [4]): 819
cell death (HeLa cells; Yes/No call from z-scoreHeLa): No
z-scoreHeLa mean (HeLa cells; [5]): -2.50
z-scoreHeLa rep 1 (HeLa cells; [5]): -2.12
z-scoreHeLa rep 2 (HeLa cells; [5]): -2.57
z-scoreHeLa rep 3 (HeLa cells; [5]): -2.79

COc1cc(Nc2nccc(N3CCC(NC(=O)Nc4ccc5c(c4)OCO5)C3)n2)cc(OC)c1OC (centres unmarked) [GSK1379766A]
%GFP+ rep 1 (intracellular MRSA; [1]): 17.4%
%GFP+ rep 2 (intracellular MRSA; [1]): 18.6%
%GFP+ rep 3 (intracellular MRSA; [1]): 19.8%
z-scoreMRSA+ mean (intracellular MRSA; [6]): -0.04
z-scoreMRSA+ rep 1 (intracellular MRSA; [6]): -0.15
z-scoreMRSA+ rep 2 (intracellular MRSA; [6]): 0.0226
z-scoreMRSA+ rep 3 (intracellular MRSA; [6]): 0.00377
effect (intracellular MRSA; [11]): No
hit (intracellular MRSA; [7]): No
effect (intracellular MRSA; [8]): No
z-scoreMRSA+ mean (intracellular MRSA; PKIS compound screen): 0.27
z-scoreMRSA+ rep 1 (intracellular MRSA; PKIS compound screen): 0.18
z-scoreMRSA+ rep 2 (intracellular MRSA; PKIS compound screen): 0.32
z-scoreMRSA+ rep 3 (intracellular MRSA; PKIS compound screen): 0.30
%GFP+ rep 1 (intracellular MRSA; [12]): 28.0%
%GFP+ rep 2 (intracellular MRSA; [12]): 27.7%
%GFP+ rep 3 (intracellular MRSA; [12]): 28.9%
cell count rep 1 (HeLa cells; [4]): 25836
cell count rep 2 (HeLa cells; [4]): 29727
cell count rep 3 (HeLa cells; [4]): 37841
z-scoreHeLa mean (HeLa cells; [9]): -0.17
z-scoreHeLa rep 1 (HeLa cells; [9]): 0.87
z-scoreHeLa rep 2 (HeLa cells; [9]): -0.94
z-scoreHeLa rep 3 (HeLa cells; [9]): -0.43
cell death (HeLa cells; [11]): No
cell death (HeLa cells; [10]): No
z-scoreHeLa mean (HeLa cells; PKIS compound screen): 0.15
z-scoreHeLa rep 1 (HeLa cells; PKIS compound screen): 0.05
z-scoreHeLa rep 2 (HeLa cells; PKIS compound screen): -0.13
z-scoreHeLa rep 3 (HeLa cells; PKIS compound screen): 0.53
cell count rep 1 (HeLa cells; [13]): 6133
cell count rep 2 (HeLa cells; [13]): 5809
cell count rep 3 (HeLa cells; [13]): 6429

Cl.Cl.Cl.Fc1ccc(-c2ncn(C3CCNCC3)c2-c2ccnc(Nc3ccccc3)n2)cc1 [SB-238039-R]
%GFP+ rep 1 (intracellular MRSA; [12]): 7.4%
%GFP+ rep 2 (intracellular MRSA; [12]): 6.7%
%GFP+ rep 3 (intracellular MRSA; [12]): 6.5%
effect (intracellular MRSA; Yes/No call from z-scoreMRSA+): Yes
hit (intracellular MRSA; [2]): Yes
z-scoreMRSA+ mean (intracellular MRSA; [3]): -2.31
z-scoreMRSA+ rep 1 (intracellular MRSA; [3]): -1.86
z-scoreMRSA+ rep 2 (intracellular MRSA; [3]): -2.29
z-scoreMRSA+ rep 3 (intracellular MRSA; [3]): -2.78
cell count rep 1 (HeLa cells; [13]): 1720
cell count rep 2 (HeLa cells; [13]): 1088
cell count rep 3 (HeLa cells; [13]): 3178
cell death (HeLa cells; Yes/No call from z-scoreHeLa): No
z-scoreHeLa mean (HeLa cells; [5]): -2.33
z-scoreHeLa rep 1 (HeLa cells; [5]): -2.76
z-scoreHeLa rep 2 (HeLa cells; [5]): -2.40
z-scoreHeLa rep 3 (HeLa cells; [5]): -1.81

COC(=O)Nc1nc2ccc(Oc3ccc(NC(=O)Nc4cc(C(F)(F)F)ccc4Cl)cc3)cc2[nH]1 [GW697465A]
%GFP+ rep 1 (intracellular MRSA; [1]): 23.4%
%GFP+ rep 2 (intracellular MRSA; [1]): 20.2%
%GFP+ rep 3 (intracellular MRSA; [1]): 19.7%
effect (intracellular MRSA; Yes/No call from z-scoreMRSA+): No
hit (intracellular MRSA; [2]): No
z-scoreMRSA+ mean (intracellular MRSA; [3]): -0.59
z-scoreMRSA+ rep 1 (intracellular MRSA; [3]): -0.44
z-scoreMRSA+ rep 2 (intracellular MRSA; [3]): -0.59
z-scoreMRSA+ rep 3 (intracellular MRSA; [3]): -0.75
cell count rep 1 (HeLa cells; [4]): 4644
cell count rep 2 (HeLa cells; [4]): 3894
cell count rep 3 (HeLa cells; [4]): 5423
cell death (HeLa cells; Yes/No call from z-scoreHeLa): No
z-scoreHeLa mean (HeLa cells; [5]): 0.00465
z-scoreHeLa rep 1 (HeLa cells; [5]): 0.21
z-scoreHeLa rep 2 (HeLa cells; [5]): -0.31
z-scoreHeLa rep 3 (HeLa cells; [5]): 0.12

CC(C)c1ccc2c(c1)NC(=O)C2=NNc1ccc(S(N)(=O)=O)cc1 [GW300653X]
%GFP+ rep 1 (intracellular MRSA; [12]): 12.5%
%GFP+ rep 2 (intracellular MRSA; [12]): 13.7%
%GFP+ rep 3 (intracellular MRSA; [12]): 13.3%
effect (intracellular MRSA; Yes/No call from z-scoreMRSA+): No
hit (intracellular MRSA; [2]): No
z-scoreMRSA+ mean (intracellular MRSA; [3]): -0.30
z-scoreMRSA+ rep 1 (intracellular MRSA; [3]): -0.21
z-scoreMRSA+ rep 2 (intracellular MRSA; [3]): 0.07
z-scoreMRSA+ rep 3 (intracellular MRSA; [3]): -0.77
cell count rep 1 (HeLa cells; [13]): 3693
cell count rep 2 (HeLa cells; [13]): 3535
cell count rep 3 (HeLa cells; [13]): 5783
cell death (HeLa cells; Yes/No call from z-scoreHeLa): No
z-scoreHeLa mean (HeLa cells; [5]): -0.70
z-scoreHeLa rep 1 (HeLa cells; [5]): -0.98
z-scoreHeLa rep 2 (HeLa cells; [5]): -0.55
z-scoreHeLa rep 3 (HeLa cells; [5]): -0.56

Cc1c2ccc(N(C)c3ccnc(Nc4cccc(S(N)(=O)=O)c4)n3)cc2nn1C [GW771127A]
%GFP+ rep 1 (intracellular MRSA; [1]): 14.2%
%GFP+ rep 2 (intracellular MRSA; [1]): 13.8%
%GFP+ rep 3 (intracellular MRSA; [1]): 15.3%
z-scoreMRSA+ mean (intracellular MRSA; [6]): -1.32
z-scoreMRSA+ rep 1 (intracellular MRSA; [6]): -1.16
z-scoreMRSA+ rep 2 (intracellular MRSA; [6]): -1.42
z-scoreMRSA+ rep 3 (intracellular MRSA; [6]): -1.37
hit (intracellular MRSA; [7]): No
effect (intracellular MRSA; [8]): No
cell count rep 1 (HeLa cells; [4]): 10020
cell count rep 2 (HeLa cells; [4]): 29599
cell count rep 3 (HeLa cells; [4]): 33795
z-scoreHeLa mean (HeLa cells; [9]): -1.19
z-scoreHeLa rep 1 (HeLa cells; [9]): -1.53
z-scoreHeLa rep 2 (HeLa cells; [9]): -0.97
z-scoreHeLa rep 3 (HeLa cells; [9]): -1.07
cell death (HeLa cells; [10]): No
